These results are taken from ChEMBL document CHEMBL5058564, “EUbOPEN Chemogenomics Library 2 (Incucyte)” (2022).

What all share (type): toxicity, cell-based
One data set concerns HEK-293T. Put plainly: Incucyte cell viability with HEK293T. The settings on record: human, 10 µM, compound concentration 10 uM.
A further data set deals with Fibroblast. Put plainly: Incucyte cell viability with human fibroblast. As to conditions: 10 µM, compound concentration 10 uM.
For a further data set, the system named is U2OS. Put plainly: Incucyte cell viability with U2OS. The settings on record: human, 10 µM, compound concentration 10 uM.
The mark [1] stands for this setting: 0 h, replicate number 1, timepoint 0 hours.
[2] abbreviates: 0 h, replicate number 2, timepoint 0 hours.
Where [3] appears, read: 6 h, replicate number 1, timepoint 6 hours.
Where [4] appears, read: 6 h, replicate number 2, timepoint 6 hours.
Setting [5] is: 12 h, replicate number 1, timepoint 12 hours.
Where [6] appears, read: 12 h, replicate number 2, timepoint 12 hours.
Setting [7] is: 18 h, replicate number 1, timepoint 18 hours.
Setting [8] is: 18 h, replicate number 2, timepoint 18 hours.
Where [9] appears, read: 24 h, replicate number 1, timepoint 24 hours.
Where [10] appears, read: 24 h, replicate number 2, timepoint 24 hours.

Values joined by “and” are separate entries in the source; they are usually repeats but may differ in a detail not shown here. Equal values may be shown once. Where a SMILES comes first, the peptide text is derived from it. Bridges are numbered along the chain shown (N, C = ends). [ ]: non-standard residue; d: D form. Orn = NCCC[C@H](N)C(=O)O; Mpa = O=C(O)CCS
Note: unitless GR value; below 1 slowed growth and below 0 cell loss.

For `Cc1cnc(-c2cc(N3CCN(C(=O)CCS(C)(=O)=O)CC3)ncc2Cl)c(C)c1`, the “Growth Rate” value with HEK-293T (setting [1]) turned out to be 0.65; in the data set with HEK-293T (setting [2]), 0.96; with Fibroblast (setting [3]) it was 0.66; with Fibroblast (setting [4]) it was 0.05; in the data set on Fibroblast (setting [5]), 0.76; in the data set on Fibroblast (setting [6]), 0.17. The “Growth Rate” value with Fibroblast (setting [7]) worked out at 0.94; with Fibroblast (setting [8]), 0.71; with Fibroblast (setting [9]), 0.94; with U2OS (setting [4]) it was 0.63; in the data set on U2OS (setting [8]), 0.92.

`CCOc1ccc(C[C@H]2NC(=O)CCSSC[C@@H](C(=O)N3CCC[C@H]3C(=O)N[C@@H](CCCN)C(=O)NCC(N)=O)NC(=O)[C@H](CC(N)=O)NC(=O)[C@H]([C@@H](C)O)NC(=O)[C@H]([C@@H](C)CC)NC2=O)cc1` [ATOSIBAN] ([Mpa][dY](Et)ITNCP[Orn]G-NH2; disulfide 1-6): the “Growth Rate” value in the data set on HEK-293T (setting [1]) was 0.87; in the data set on HEK-293T (setting [4]), 0.92; in the data set on HEK-293T (setting [6]) it was 0.83; in the data set on HEK-293T (setting [8]), 0.78; in the data set with HEK-293T (setting [10]), 0.7; in the data set on Fibroblast (setting [1]) it was 0.49. The “Growth Rate” value in the data set with Fibroblast (setting [2]) is 0.42; in the data set with Fibroblast (setting [4]), 0.56; with Fibroblast (setting [5]), 0.64; in the data set on Fibroblast (setting [6]) it was 0.4; in the data set on U2OS (setting [2]) it was -1; with U2OS (setting [4]), 0.76. The “Growth Rate” value is 0.97 in the data set on U2OS (setting [6]), 0.79 with U2OS (setting [7]) and 0.89 in the data set on U2OS (setting [8]).

As to `N=C(N)NCCC[C@@H](NC(=O)C(c1ccccc1)c1ccccc1)C(=O)NCc1ccc(CNC(N)=O)cc1.O=C(O)C(F)(F)F.O=C(O)C(F)(F)F`, the “Growth Rate” value in the data set on HEK-293T (setting [3]) was 1; in the data set with HEK-293T (setting [4]), 0.41; with HEK-293T (setting [5]), 0.8; with HEK-293T (setting [7]), 0.83; in the data set on HEK-293T (setting [9]), 0.98; in the data set with Fibroblast (setting [1]), -0.19. Further, the “Growth Rate” value amounted to 0.44 with Fibroblast (setting [3]); 0.45 with Fibroblast (setting [4]); 0.58 with Fibroblast (setting [5]); 0.67 in the data set with Fibroblast (setting [6]); 0.41 with Fibroblast (setting [7]); 0.52 in the data set with Fibroblast (setting [9]). For the same compound, the “Growth Rate” value with U2OS (setting [2]) is reported as 0.75; in the data set with U2OS (setting [3]), 0.1; in the data set on U2OS (setting [4]), 0.61; in the data set with U2OS (setting [5]), 0.58; in the data set with U2OS (setting [6]) it was 0.93; in the data set on U2OS (setting [7]), 0.59. The figures for the “Growth Rate” value in the data set with U2OS (setting [8]), with U2OS (setting [9]) and in the data set with U2OS (setting [10]) were 0.96, 0.82 and 0.83, respectively.

For the compound `Nc1nc(CC(=O)Nc2ccc(CCNC[C@H](O)c3ccccc3)cc2)cs1` [MIRABEGRON], the “Growth Rate” value in the data set with HEK-293T (setting [1]) is given as 0.8; in the data set on HEK-293T (setting [2]), 0.62; with Fibroblast (setting [1]), 0.35; in the data set on Fibroblast (setting [2]), 0.45; in the data set on Fibroblast (setting [3]) it was 0.68; in the data set with Fibroblast (setting [4]), 0.56. In addition, the “Growth Rate” value was found to be 0.9 in the data set on Fibroblast (setting [5]), 0.18 with U2OS (setting [1]), 0.95 in the data set on U2OS (setting [5]) and 0.54 with U2OS (setting [7]).

Take `O=C(O)c1n[nH]c2c1C[C@H]1C[C@@H]21`: the “Growth Rate” value in the data set with HEK-293T (setting [1]) is 0.7; in the data set on HEK-293T (setting [2]) it was 0.85; in the data set on HEK-293T (setting [3]), 0.55; with HEK-293T (setting [4]), 0.86 and 0.89; with HEK-293T (setting [5]) it was 0.71; in the data set on HEK-293T (setting [6]), 0.64. In addition, the “Growth Rate” value was 0.67 with HEK-293T (setting [7]); 0.58 in the data set on HEK-293T (setting [8]); 0.7 in the data set on HEK-293T (setting [9]); 0.58 with HEK-293T (setting [10]); 0.67 in the data set on Fibroblast (setting [1]); 0.18 and 0.32 with Fibroblast (setting [2]). For the same compound, the “Growth Rate” value with Fibroblast (setting [3]) is 0.39 and 0.14; with Fibroblast (setting [4]), 0.95 and 0.74; in the data set with Fibroblast (setting [5]), 0.55 and 0.57; with Fibroblast (setting [6]), 0.86; with Fibroblast (setting [7]) it was 0.72 and 0.87; with Fibroblast (setting [8]), 0.89. Besides, the “Growth Rate” value in the data set on Fibroblast (setting [9]) is 0.63 and 0.53; in the data set with Fibroblast (setting [10]), 0.79; in the data set with U2OS (setting [3]) it was -0.58; in the data set on U2OS (setting [4]), 0.74; in the data set on U2OS (setting [6]), 0.86; in the data set with U2OS (setting [8]), 0.91 and 0.92. For the same compound, the “Growth Rate” value was determined as 0.99 in the data set on U2OS (setting [9]) and 1 in the data set on U2OS (setting [10]).

As for `O=C(NCC(=O)N1CC[C@H](N[C@H]2CC[C@@](O)(c3ccc(-c4ncccn4)cn3)CC2)C1)c1cccc(C(F)(F)F)c1` [PF-4136309], the “Growth Rate” value in the data set on HEK-293T (setting [2]) was 0.66; in the data set with HEK-293T (setting [3]), 1; in the data set on HEK-293T (setting [4]) it was 0.86; with HEK-293T (setting [5]), 0.73; in the data set with HEK-293T (setting [9]) it was 0.99; with Fibroblast (setting [2]), 0.71. Further, the “Growth Rate” value with Fibroblast (setting [3]) stood at 0.01; in the data set on Fibroblast (setting [5]), 0.15; in the data set on Fibroblast (setting [7]) it was 0.3; in the data set on Fibroblast (setting [9]), 0.41; in the data set with U2OS (setting [1]), 0.62; in the data set with U2OS (setting [4]) it was 0.3. Further, the “Growth Rate” value with U2OS (setting [6]) was found to be 0.53; with U2OS (setting [7]), 1; with U2OS (setting [8]), 0.8; in the data set with U2OS (setting [9]), 0.7; in the data set with U2OS (setting [10]), 0.9.

`Nc1nc(-c2ccco2)c2cnn(Cc3ccccc3F)c2n1`: the “Growth Rate” value in the data set with HEK-293T (setting [3]) is listed as -0.23; in the data set on HEK-293T (setting [4]), -0.21; in the data set on HEK-293T (setting [5]), -0.22; with HEK-293T (setting [6]) it was -0.25; in the data set with HEK-293T (setting [7]), -0.17; with HEK-293T (setting [8]), -0.05. For the same compound, the “Growth Rate” value with HEK-293T (setting [9]) is recorded as -0.12; with HEK-293T (setting [10]), 0.12; in the data set with Fibroblast (setting [3]) it was -0.86; with Fibroblast (setting [4]), -0.89; in the data set on Fibroblast (setting [5]), -0.81; with Fibroblast (setting [6]), -0.55. Moreover, the “Growth Rate” value with Fibroblast (setting [7]) is -0.75; in the data set on Fibroblast (setting [8]) it was -0.29; in the data set with Fibroblast (setting [9]), -0.66; in the data set on Fibroblast (setting [10]) it was -0.09; in the data set with U2OS (setting [1]), -0.81; with U2OS (setting [3]), 0.66. For the same compound, the “Growth Rate” value in the data set with U2OS (setting [4]) was determined as 0.28; with U2OS (setting [6]), 0.27; in the data set with U2OS (setting [7]) it was 0.95; with U2OS (setting [8]) it was 0.48; with U2OS (setting [9]), 0.89; with U2OS (setting [10]), 0.48.

Turning to `Cc1ccc(Cn2nc(C(=O)N[C@@H]3C(C)(C)[C@@H]4CC[C@@]3(C)C4)cc2-c2ccc(Cl)c(C)c2)cc1`, the “Growth Rate” value with HEK-293T (setting [4]) was found to be 0.75; in the data set with HEK-293T (setting [6]), 0.96; with HEK-293T (setting [7]) it was 0.94; in the data set on HEK-293T (setting [9]), 0.95; with Fibroblast (setting [3]), 0.46; in the data set with Fibroblast (setting [4]) it was 0.01. Also, the “Growth Rate” value is reported as 0.76 with Fibroblast (setting [5]); 0.14 in the data set with Fibroblast (setting [6]); 0.78 in the data set on Fibroblast (setting [7]); 0.72 with Fibroblast (setting [9]); -1 in the data set with U2OS (setting [1]); 0.89 with U2OS (setting [4]). In addition, the “Growth Rate” value in the data set with U2OS (setting [5]) is given as 0.92; with U2OS (setting [6]), 0.74; with U2OS (setting [8]), 0.82; in the data set with U2OS (setting [9]) it was 0.86; with U2OS (setting [10]), 0.74.

For `Cc1c(C(=O)Nc2ccc(N3C[C@@H](C)O[C@@H](C)C3)nc2)cccc1-c1ccc(OC(F)(F)F)cc1` [SONIDEGIB], the “Growth Rate” value is listed as -0.95 in the data set with HEK-293T (setting [2]); 0.25 with HEK-293T (setting [3]); -0.63 with HEK-293T (setting [4]); -0.06 with HEK-293T (setting [5]); -0.54 in the data set on HEK-293T (setting [6]); 0 in the data set with HEK-293T (setting [7]). The “Growth Rate” value in the data set on HEK-293T (setting [8]) is reported as -0.39; in the data set on HEK-293T (setting [9]), 0.05; in the data set on HEK-293T (setting [10]) it was -0.3; with Fibroblast (setting [1]), 0.97; with Fibroblast (setting [2]) it was 0.63; with Fibroblast (setting [3]) it was 0.45. The “Growth Rate” value is listed as 0.42 in the data set on Fibroblast (setting [5]); 0.13 with Fibroblast (setting [7]); 0.36 with Fibroblast (setting [9]); -0.44 in the data set on U2OS (setting [1]); -1 in the data set on U2OS (setting [2]); 0.97 with U2OS (setting [10]).

Turning to `Cc1cc(Cn2cnc3c2C[C@@H](C(=O)O)N(C(=O)C(c2ccccc2)c2ccccc2)C3)ccc1N(C)C`, the “Growth Rate” value in the data set on HEK-293T (setting [3]) is on record as 0.56; in the data set with HEK-293T (setting [4]), 0.61; in the data set with HEK-293T (setting [5]) it was 0.72; in the data set with HEK-293T (setting [6]) it was 0.75; with HEK-293T (setting [7]), 0.7; in the data set on HEK-293T (setting [8]), 0.99. Also, the “Growth Rate” value came to 0.85 in the data set on HEK-293T (setting [9]); 0.15 with Fibroblast (setting [1]); 0.22 in the data set on Fibroblast (setting [3]); 0.53 in the data set on Fibroblast (setting [7]); 0.97 in the data set on Fibroblast (setting [8]); 0.39 with Fibroblast (setting [9]). In addition, the “Growth Rate” value is 0.88 in the data set on Fibroblast (setting [10]), 0.34 in the data set on U2OS (setting [2]) and 0.97 in the data set on U2OS (setting [10]).
